Results on 9 compounds are retold here after patent US6897212B2, “Treatment of oppositional defiant disorder and conduct disorder with 5-aminoalkyl-4,5,6,7-tetrahydro-4-oxyindolones” (Afecta Pharmaceuticals, priority 2002, dated 2005).

Like-named read-outs stand apart in the source and are kept apart here.

In data set [1] the test system is patients with refractory depression. The following applies: 19 patients with refractory depression; molindone 10-30 mg/day; cited from earlier work.
The target in a further data set is Dopamine 2 receptor (Homo sapiens, UniProt P14416). Briefly: binding affinity to Dopamine 2 receptor in cell membrane homogenates.
Chain of Dopamine 2 receptor (P14416 whole entry): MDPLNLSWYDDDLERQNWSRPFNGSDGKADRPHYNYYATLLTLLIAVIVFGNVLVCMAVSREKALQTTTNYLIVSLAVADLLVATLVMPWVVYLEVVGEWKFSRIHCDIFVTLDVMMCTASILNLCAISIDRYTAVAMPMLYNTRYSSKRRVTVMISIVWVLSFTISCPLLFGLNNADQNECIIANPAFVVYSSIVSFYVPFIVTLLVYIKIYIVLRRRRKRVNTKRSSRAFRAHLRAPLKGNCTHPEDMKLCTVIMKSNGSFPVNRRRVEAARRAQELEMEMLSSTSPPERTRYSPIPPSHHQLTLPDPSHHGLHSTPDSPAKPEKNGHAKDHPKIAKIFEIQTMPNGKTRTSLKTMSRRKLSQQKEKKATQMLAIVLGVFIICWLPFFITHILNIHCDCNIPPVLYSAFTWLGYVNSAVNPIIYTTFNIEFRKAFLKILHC
In a further data set the target is 5-HT2A (Homo sapiens, UniProt P28223). Briefly: in vitro activity (pA2) on cells expressing serotonine receptors.
Chain of 5-HT2A (P28223 whole entry, species assumed): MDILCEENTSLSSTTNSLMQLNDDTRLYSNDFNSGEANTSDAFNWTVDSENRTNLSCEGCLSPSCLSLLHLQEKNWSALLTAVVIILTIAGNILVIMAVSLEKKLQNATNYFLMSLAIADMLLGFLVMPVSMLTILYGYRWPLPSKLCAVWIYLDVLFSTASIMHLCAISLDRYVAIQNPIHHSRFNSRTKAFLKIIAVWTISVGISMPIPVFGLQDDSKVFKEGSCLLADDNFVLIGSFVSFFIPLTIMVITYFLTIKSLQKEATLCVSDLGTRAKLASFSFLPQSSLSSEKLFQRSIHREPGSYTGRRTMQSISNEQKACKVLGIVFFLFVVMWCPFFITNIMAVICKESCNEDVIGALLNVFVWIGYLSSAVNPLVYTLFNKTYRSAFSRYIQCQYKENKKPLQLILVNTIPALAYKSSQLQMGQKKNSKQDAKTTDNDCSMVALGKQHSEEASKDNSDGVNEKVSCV
For another data set, the target named is T1, Serotonin 2A receptor (Homo sapiens, UniProt P28223).
T1 construct: membrane homogenates
T1 sequence (P28223 whole entry): as the sequence (P28223 whole entry, species assumed) above
Briefly: binding affinity to Serotonin 2A receptor in cell membrane homogenates. The following applies: for Ki: cell membrane homogenates, read-out: pKi 5-HT2A (converted); for pKi ratio 5-HT2A/D2: ratio of Serotonin 2A binding to Dopamine 2 binding. An excerpt: The formulae of the compounds are [drawing 6]
Here, the pKi value is a measure for the binding affinity of the test compounds to the receptors present in cell membrane homogenates. D1 refers to the Dopamine 1 receptor, D2 refers to the Dopamine 2 receptor, and 5-HT2A refers to the Serotonin 2A receptor, while the pKi ratio presents the ratio of Serotonin 2A binding to Dopamine 2 binding.

The target in the next data set is Dopamine 1 receptor (Homo sapiens, UniProt P21728). Briefly: binding affinity to Dopamine 1 receptor in cell membrane homogenates.
Chain of Dopamine 1 receptor (P21728 whole entry): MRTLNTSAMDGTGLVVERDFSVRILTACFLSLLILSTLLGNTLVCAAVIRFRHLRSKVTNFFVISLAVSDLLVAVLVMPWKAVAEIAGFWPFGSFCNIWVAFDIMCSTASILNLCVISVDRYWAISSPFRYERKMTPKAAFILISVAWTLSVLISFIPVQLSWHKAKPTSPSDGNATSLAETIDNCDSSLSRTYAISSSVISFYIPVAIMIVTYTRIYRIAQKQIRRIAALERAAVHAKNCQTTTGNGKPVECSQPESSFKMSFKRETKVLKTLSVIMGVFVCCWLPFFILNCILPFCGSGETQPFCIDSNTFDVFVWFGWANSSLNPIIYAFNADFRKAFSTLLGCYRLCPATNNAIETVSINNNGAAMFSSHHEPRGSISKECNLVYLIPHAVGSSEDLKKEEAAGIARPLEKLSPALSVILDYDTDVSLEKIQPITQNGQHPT
The next data set concerns monoamine oxidase. The settings on record: in vitro and in vivo; cited from earlier work.
The conditions of data set [2]: cited from earlier work.
The conditions of data set [3]: human, in vivo.
The test system of data set [4] is children with undersocialized conduct disorder, aggressive type. The settings on record: cited from earlier work; for behavior ratings: double-blind study, 31 children, ages 6-11 years (Greenhill et al., 1985).
A further data set has as its system patients with ODD. The data set can be described thus: treatment of patients with oppositional defiant disorder and conduct disorder. The format is in vivo, human. An excerpt:
The side effect is totally unacceptable to teenagers.
Case histories are set out in the following examples, which are offered by way of illustration and are not intended to limit the invention in any manner.

The conditions of data set [5]: cited from earlier work. This is another data set of the same source.
Data set [6] in a line: weight gain in treated patients.

As to `N[C@@H]1C[C@H]1c1ccccc1` (racemic) [tranylcypromine], the “patients showing definite improvement” value in data set [1] is given as “two”.

Consider `CCc1c(C)[nH]c2c1C(=O)C(CCN1CCOCC1)CC2` (stereo not drawn) [Compound 1], for which the Ki on Dopamine 2 receptor is 589 nM; on Serotonin 2A receptor, 912 nM; on Dopamine 1 receptor, 2140 nM. Besides, on 5-HT2A, the Kb is 105 nM. Besides, at Serotonin 2A receptor, the “pKi ratio 5-HT2A/D2” value came out at 0.97.

In the case of `CCc1c(C)[nH]c2c1C(=O)C(CCN1CCN(c3ccccc3OC)CC1)CC2` (stereo not drawn) [Compound 2], the Ki on Dopamine 2 receptor is 28.2 nM; at Serotonin 2A receptor, 91.2 nM. For the same compound, the Kb on 5-HT2A was 31.6 nM. Also, the “pKi ratio 5-HT2A/D2” value on Serotonin 2A receptor is 0.97.

With `CCc1c(C)[nH]c2c1C(=O)C(CN1CCOCC1)CC2` (stereo not drawn) [Molindone, 3-ethyl-6,7-dihydro-2-methyl-5-(morpholinomethyl)indol-4-(5H)-one], the “inhibition of monoamine oxidase” value in the data set with monoamine oxidase is “inhibits the enzyme monoamine oxidase in vitro and in vivo”. In addition, the “patients showing definite improvement” value in [1] is reported as “Five of the 10 patients”. For the same compound, in data set [2] (concomitant lithium therapy), the prolongation of half-life entry is reported as “at least fourfold”. For the same compound, the elimination half-life entry in data set [2] (humans) is reported as “approximately 2 hours”. Further, the weight gain entry in data set [3] is reported as “rarely, if ever, causes weight gain”. Moreover, the behavior ratings entry in data set [4] was “improvement in behavior ratings”. Further, the “aggressive behavior and Nurses' Global Assessment Scale” value in data set [4] (open trial, six patients, ages 6-11 years (Greenhill et al., 1981)) is “some improvement”. Moreover, the “effect on tantrums, hitting, rages and swearing” value with patients with ODD (Example 1, patient three, ¼ of a 5 mg tablet every 4 hours) was “immediate cessation of the tantrums, hitting and rages and less swearing”. For the same compound, the “effect of raised dose” value in the data set with patients with ODD (Example 1, patient three, ½ of a 5 mg tablet every 4 hours after three months) is on record as “more effective”. The “effect on tantrums and aggressive behaviors” value in the data set with patients with ODD (Example 2, patient two, 2.5 mg every 4 hours) was “the tantrums and aggressive behaviors disappeared”. In addition, the persistence of effect entry in the data set on patients with ODD (Example 2, patient two, after 6 months of use) was “still effective”. For the same compound, the “effect on behavior after molindone was again initiated” value in the data set on patients with ODD (Example 3, patient one) was “immediate and dramatic improvement in the behavior”. Moreover, the “effect on oppositional behavior” value in the data set on patients with ODD (Example 3, patient one, molindone 10 mg bid) is recorded as “dramatic decrease in oppositional behavior”. Besides, the “treatment of ODD” value in the data set on patients with ODD (more than 50 patients with ODD, usual dose 1.25 to 10 mg every 4 hours) was “successfully treated”.

With `CN(C)CCCN1c2ccccc2Sc2ccc(Cl)cc21` [chlorpromazine], in data set [5], the “fraction in plasma not bound to protein” value was 0.13%.

Turning to `O=C(CCCN1CCC(O)(c2ccc(Cl)cc2)CC1)c1ccc(F)cc1` [haloperidol], the “fraction in plasma not bound to protein” value in data set [5] is recorded as 9%.

Regarding `Cc1cc2c(s1)Nc1ccccc1N=C2N1CCN(C)CC1` [olanzapine], the weight gain result is “significant weight gain” in data set [6] (Example 3, patient one) and “unacceptable level of weight gain, sometimes approaching a pound a day” in data set [6] (patients, especially children).

For the compound `Cc1nc2n(c(=O)c1CCN1CCC(c3noc4cc(F)ccc34)CC1)CCCC2` [risperidone], the weight gain result in data set [6] (Example 3, patient one) is on record as “significant weight gain”; in [6] (patients, especially children), “unacceptable level of weight gain, sometimes approaching a pound a day”. In the data set with patients with ODD (Example 3, patient one, used instead of molindone), the “effect on oppositional behavior” value was “significant improvement in the oppositional behavior”. In addition, the “treatment of ODD” value with patients with ODD (unpublished observations) is listed as “capable of effectively treating ODD”.

`CSc1ccc2c(c1)N(CCC1CCCCN1C)c1ccccc1S2` (stereo not drawn) [thioridazine]: the behavior ratings result in [4] is recorded as “improvement in behavior ratings”.
